Data reported in patent US20140039050A1, “METHOD FOR […] INFECTION IN A FE[…]” (priority 2011, published 2014).

How the values were obtained:
Type in all cases: cell-based
yeast cells = assay: Neubauer chamber microscopy with erythrosine dye (Method 2), yeast cell count, viability and budding; conditions: exposure +30° C. 5 hours; for Reproductive yeast cells %: budding cells over total living cells; for CFU/ml Yeasts 48 h, Neubauer count: total yeast cells; for Yeast cell viability %: viable cells over total cells (live+dead)
Description: (§1) Total viable bacteria and viable yeasts in the samples herein were measured as colony forming units (CFU) per unit of volume (i.e., CFU/ml). The viability of yeasts and their ability to reproduce were measured by using a microscopical method, where specific dye (erythrosine) was used to visualize the amount and form (live, dead, budding) of yeast cells.
(§2) The yeast cream samples (recovered from the wine, through a centrifuge) were diluted with lake water in a ratio of 30%+70%, respectively. The diluted yeast cream samples (later on called yeast cream solutions) were exposed to varying concentrations of performic acid in the equilibrium solution as follows: 49.5 ppm, 74.3 ppm and 99 ppm. In a control sample, no performic acid was added to the yeast cream solution. The effect of performic acid on bacteria was determined by one method (method 1), and on yeast cells by two methods (methods 1 and 2).
The exposed samples and the control sample were held in +30° C. for 5 hours, after which the specific parameters of yeast cells were measured. These parameters included the amount of living yeast cells, dead yeast cells and budding yeast cells (i.e. reproducing yeast cells). The method used was a standard method, commonly adopted by Brazilian Sugar Cane Industry mills. In the method, a Neubauer chamber was filled with approximately 10 μl of the exposed sample, where the erythrosine dye had been mixed in. On the cover slip, a drop of immersion oil was added, and the above mentioned yeast cell parameters were evaluated by using an immersion objective (100×) of the microscope. The cells that presented pink coloration were counted as dead cells, and uncolored cells as living cells. The budding cells were determined on the basis of the shape of the yeast cell.
The total amount of the yeast cells was counted and compared to the result obtained with Method 1. Results are provided in Table 1 (Neubauer count of yeast cells). The cell viability indicates the percentage of viable cells over total cells (live+dead). The cell reproductive % indicates the percentage of budding cells over total living cells.

yeasts = assay: Serial dilution and cultivation on Petri films after exposure of yeast cream solution (Method 1), yeasts; conditions: exposure +30° C. 30 minutes, incubated +30° C. 48 hours
Description: as §1, §2
(§3) The exposed samples and the control sample were held in +30° C. for 30 minutes, after which the amount of survived microbes was enumerated. The method used was a Serial dilution and cultivation method, where the effect of performic acid on the yeast cream solution was measured via dilution and cultivation of the sample after the exposure, to enumerate the amount of microbial growth. This method entail the dilution of each is sample by a factor large enough to enable clear separation of individual microbial colonies on Petri™ films (from 3M); thus allowing the colonies to be individually counted. Where diluted samples had been applied and inoculated in, the Petri™ films were incubated at +35° C. for 48 hours (bacteria) or at +30° C. for 48 hours (yeasts).

bacteria = assay: Serial dilution and cultivation on Petri films after exposure of yeast cream solution (Method 1), bacteria; conditions: exposure +30° C. 30 minutes, incubated +35° C. 48 hours
Description: as §1, §2, §3

[1] = 49.5 ppm performic acid in yeast cream solution
[2] = 74.3 ppm performic acid in yeast cream solution
[3] = 99 ppm performic acid in yeast cream solution

O=COO [performic acid]
Reproductive yeast cells % (yeast cells; [1]): 6.8% | CFU/ml Yeasts 48 h, Neubauer count (yeast cells; [1]): 380 000 000 CFU/ml | Yeast cell viability % (yeast cells; [1]): 71.1% | Reproductive yeast cells % (yeast cells; [2]): 8.9% | CFU/ml Yeasts 48 h, Neubauer count (yeast cells; [2]): 400 000 000 CFU/ml | Yeast cell viability % (yeast cells; [2]): 72.1% | Reproductive yeast cells % (yeast cells; [3]): 4.1% | CFU/ml Yeasts 48 h, Neubauer count (yeast cells; [3]): 640 000 000 CFU/ml | Yeast cell viability % (yeast cells; [3]): 72.3% | CFU/ml Yeasts 48 h, MIC (yeasts; [1]): 1 000 000 000 CFU/ml | CFU/ml Yeasts 48 h, MIC (yeasts; [2]): 6 100 000 000 CFU/ml | CFU/ml Yeasts 48 h, MIC (yeasts; [3]): 1 000 000 000 CFU/ml | CFU/ml Bacteria 48 h, MIC (bacteria; [1]): 60 CFU/ml | CFU/ml Bacteria 48 h, MIC (bacteria; [2]): 70 CFU/ml | CFU/ml Bacteria 48 h, MIC (bacteria; [3]): 30 CFU/ml
